Read-outs that look alike come from different tables or passages of the source.
What was measured:
[1] = system: parasitemia; test: In-vivo antimalarial activity in mice
[2] = system: CQ-sensitive (D6 clone) strain of P. falciparum; test: In vitro antimalarial activity, CQ-sensitive strain; type: cell-based, Plasmodium falciparum; settings: for IC50: Plasmodium falciparum; for P. falciparum (D6 Clone) S.I.: selectivity index = IC50 cytotoxicity to Vero cells / IC50 antimalarial
From the text: (§1) Med. Chem. 2005, 13, 4458; Khan, I. A. Lipids 2004, 37, 169].

[3] = system: CQ-resistant (W2 clone) strain of P. falciparum; test: In vitro antimalarial activity, CQ-resistant strain; type: cell-based, Plasmodium falciparum; settings: for IC50: Plasmodium falciparum; for P. falciparum (W2 Clone) S.I.: selectivity index = IC50 cytotoxicity to Vero cells / IC50 antimalarial
From the text: as §1

[4] = system: HepG2 cells; test: In vitro cytotoxicity to mammalian cells, HepG2; type: cell-based; settings: Homo sapiens
From the text: as §1

[5] = system: LLC-PK-1 cells; test: In vitro cytotoxicity to mammalian cells, LLC-PK-1; type: cell-based; settings: Sus scrofa, LLC-PK1
From the text: as §1

[6] = system: VERO cells; test: In vitro cytotoxicity to mammalian cells, VERO; type: cell-based; settings: Chlorocebus sabaeus, Vero; in vitro cytotoxicity to mammalian cells
From the text: as §1

[7] = Solubility (solvent listed in compound tables); type: physicochemical
[8] = mice, PO, 100 mg/kg × 3 days post-infection
[9] = CQ-sensitive D6 clone, read-out: P. falciparum (D6 Clone) IC50
[10] = CQ-resistant W2 clone, read-out: P. falciparum (W2 Clone) IC50
[11] = solvents listed for the compound

Structure (SMILES) | P. falciparum (D6 Clone) S.I. [2] | P. falciparum (W2 Clone) S.I. [3] | IC50 [4] [µM] | IC50 [2, 9] [µM] | IC50 [3, 10] [µM] | IC50 [5] [µM] | IC50 [6] [µM] | SOLUBILITY ([7]; solvent named, Table 3) | other results
CCN(CC)CCCC(C)Nc1ccnc2cc(Cl)ccc12 (stereo not drawn) [Chloroquine, chloroquine, reference compound] | 1250 | 140 |  |  |  |  |  |  | parasitemia suppression ([1]; day 5, 100 mg/kg for 3 days post infection, standard drug): 100%; Cure (number of mice without parasitemia till day 28 post-infection) [1, 8]: 0/5; MST (mean survival time) [1, 8]: 28 days; % Parasitemia suppression Day 5 ([1]; mice, PO, 100 mg/kg × 3 days post-infection, day 5): 100.00%; % Parasitemia suppression Day 7 ([1]; mice, PO, 100 mg/kg × 3 days post-infection, day 7): 100.00%; Survival (animals that survived day 28/total animals in group) ([1]; mice, PO, 100 mg/kg × 3 days post-infection, day 28): 5/5; Day of Death ([1]; mice, PO, 100 mg/kg × 3 days post-infection, per animal): 28/28/28/28/28; IC50 ([2]; D6, read-out: P. falciparum (D6 Clone) IC50 (μM)): 0.048 µM; IC50 ([3]; W2, read-out: P. falciparum (W2 Clone) IC50 (μM)): 0.43 µM
Cc1cc(Cl)nc(NCCNc2ccnc3cc(Cl)ccc23)n1 [11a] | 159.2 | 47.2 | 43 | 0.27 | 0.91 | 41.6 | 43 |  | 
Cc1cc(NCCCCNc2ccnc3cc(Cl)ccc23)nc(Cl)n1 [10c] | (>398) | (>87) | > 60 | 0.151 | 0.69 | > 60 | > 60 |  | 
Cc1cc(Cl)nc(NCCCCCCNc2ccnc3cc(Cl)ccc23)n1 [11d] | 336.9 | 97.8 | 8.1 | 0.165 | 0.568 | 23.4 | 55.6 |  | 
Cc1cc(NCCCNc2ccnc3cc(Cl)ccc23)nc(Cl)n1 [10b] | (>170) | (>80) | > 60 | 0.35 | 0.74 | > 60 | > 60 |  | 
Cc1cc(NCCCCCCNc2ccnc3cc(Cl)ccc23)nc(Cl)n1 [10d] | 73.7 | 27.2 | 9.3 | 0.469 | 0.544 | 14.8 | 34.6 |  | 
Cc1cc(Cl)nc(NCCCNc2ccnc3cc(Cl)ccc23)n1 [11b] | (>222) | (>48) | > 60 | 0.27 | 1.24 | > 60 | > 60 |  | 
C[C@@H]1CC[C@H]2[C@@H](C)C(=O)O[C@@H]3O[C@@]4(C)CC[C@@H]1[C@]32OO4 [Artemisinine, reference compound] | 5000 | 5000 |  | 0.012 | 0.012 |  |  |  | 
Cc1cc(NCCCNc2ccnc3cc(Cl)ccc23)nc(N2CCCCC2)n1 [12b, N-(7-Chloro-quinolin-4-yl)-N′-(6-methyl-2-piperidin-1-yl-pyrimidin-4-yl)-propane-1,3-diamine] | (>2300) | (>284) | > 60 | 0.026 | 0.211 | > 60 | > 60 |  | 
Clc1ccc2c(NCCCCNc3nccc(Nc4ccccc4)n3)ccnc2c1 [DKG823] |  |  |  |  |  |  |  |  | SOLUBILITY ([7]; solvent named, Table 4): DMSO
Cc1cc(NCCNc2ccnc3cc(Cl)ccc23)nc(NCCCCO)n1 [MT1-189] |  |  |  |  |  |  |  |  | SOLUBILITY [7, 11]: MeOH, DMSO
Cc1cc(NCCCNc2ccnc3cc(Cl)ccc23)nc(NCCO)n1 [MT1-145] |  |  |  |  |  |  |  |  | SOLUBILITY [7, 11]: MeOH, DMSO
COc1ccc(Nc2nc(NCCCNc3c4ccc(Cl)cc4nc4ccc(OC)cc34)nc(N3CCN(c4ccccc4)CC3)n2)cc1 [ATH 198] |  |  |  |  |  |  |  | DMSO | 
Clc1ccc2c(NCCCNc3nccc(Nc4ccc(Br)cc4)n3)ccnc2c1 [DKG810] |  |  |  |  |  |  |  |  | SOLUBILITY ([7]; solvent named, Table 4): DMSO
OCCCCNc1nccc(NCCCNc2ccnc3cc(Cl)ccc23)n1 [MT1-122] |  |  |  |  |  |  |  |  | SOLUBILITY [7, 11]: MeOH, DMSO
Clc1ccc2c(NCCCNc3nccc(N4CCOCC4)n3)ccnc2c1 [SM 725] |  |  |  |  |  |  |  | DMSO | 
Cc1cc(Nc2ccc(Cl)cc2)nc(NCCCCNc2ccnc3cc(Cl)ccc23)n1 [DKG847] |  |  |  |  |  |  |  |  | SOLUBILITY ([7]; solvent named, Table 4): DMSO
COc1cc(Nc2nc(NCCCNc3c4ccc(Cl)cc4nc4ccc(OC)cc34)nc(N3CCCCC3)n2)cc(OC)c1 [ATH 159] |  |  |  |  |  |  |  | DMSO | 
Clc1ccc2c(NCCNc3nc(Nc4ccccc4)nc(N4CCOCC4)n3)ccnc2c1 [SM 336] |  |  |  |  |  |  |  | DMSO | 
COc1ccc(Nc2nc(NCCNc3c4ccc(Cl)cc4nc4ccc(OC)cc34)nc(NC3CCCCC3)n2)cc1 [ATH 200] |  |  |  |  |  |  |  | DMSO | 
Clc1ccc2c(NCCCNc3nc(Nc4ccccc4)nc(N4CCOCC4)n3)ccnc2c1 [SM 341] |  |  |  |  |  |  |  | DMSO | 
CN1CCN(c2nc(Cl)cc(NCCNc3ccnc4cc(Cl)ccc34)n2)CC1 [SM 701] |  |  |  |  |  |  |  | DMSO | 
Cc1cc(Cl)nc(NCCCCNc2ccnc3cc(Cl)ccc23)n1 [11c] | (>306) | (>90) | 39.8 | 0.196 | 0.664 | > 60 | > 60 |  | 
COc1ccc(Nc2nc(NCCNc3c4ccc(Cl)cc4nc4ccc(OC)cc34)nc(N3CCN(c4ccccc4)CC3)n2)cc1 [ATH 164] |  |  |  |  |  |  |  | DMSO | 
COc1cccc2c1C(=O)c1c(O)c3c(c(O)c1C2=O)C[C@@](O)(C(=O)CO)C[C@@H]3O[C@H]1C[C@H](N)[C@H](O)[C@H](C)O1 [Doxorubicin] |  |  | < 1 |  |  | 1 | 8.2 |  | 
Cc1cc(NCCCNc2ccnc3cc(Cl)ccc23)nc(N2CCOCC2)n1 [SM 493] |  |  |  |  |  |  |  | DMSO | 
Cc1cc(NCCNc2ccnc3cc(Cl)ccc23)nc(Cl)n1 [10a] | (>285) | (>176) | > 60 | 0.21 | 0.34 | > 60 | > 60 |  | 
